Results published in patent US20240228504A1, “SUBSTITUTED TRICYCLIC AMIDES, ANALOGUES THEREOF, AND METHODS USING SAME” (Arbutus Biopharma Corporation, priority 2020, published 2024).

Tested on: HBV rcDNA in HepDE19 cells
Assay: HepDE19 assay with bDNA quantitation of HBV rcDNA
Type: cell-based, hepatitis B virus
Conditions: HepDE19 assay, inhibition of rcDNA formation, bDNA quantitation; read-out: DE-19bDNA EC50

Row | Structure (SMILES) | EC50 [µM]
1 | CN1Cc2[nH]c(=O)c3cc(F)c(F)cc3c2C(N(C)C(=O)c2cc3ccccc3[nH]2)C1 (single isomer, unassigned) [Compound 62, N-(8,9-Difluoro-3-methyl-6-oxo-1,2,3,4,5,6-hexahydrobenzo[c][1,7]naphthyridin-1-yl)-N-methyl-1H-indole-2-carboxamide] | 5.1
2 | CN(C(=O)c1cc2c([nH]1)CCC(F)(F)C2)C1COCc2[nH]c(=O)c3cc(F)c(F)cc3c21 (single isomer, unassigned) [Compound 48, N-(8,9-Difluoro-6-oxo-1,4,5,6-tetrahydro-2H-pyrano[3,4-c]isoquinolin-1-yl)-5,5-difluoro-N-methyl-4,5,6,7-tetrahydro-1H-indole-2-carboxamide] | 0.77
3 | CN(C(=O)c1cc2cc(F)ccc2[nH]1)C1COCc2[nH]c(=O)c3cc(F)c(F)cc3c21 (single isomer, unassigned) [Compound 28, N-(8,9-Difluoro-6-oxo-1,4,5,6-tetrahydro-2H-pyrano[3,4-c]isoquinolin-1-yl)-5-fluoro-N-methyl-1H-indole-2-carboxamide] | 0.004
4 | CN(C(=O)C1Cc2cc(F)ccc2N1)C1COCc2[nH]c(=O)c3cc(F)c(F)cc3c21 (single isomer, unassigned) [Compound 6, N-(8,9-Difluoro-6-oxo-1,4,5,6-tetrahydro-2H-pyrano[3,4-c]isoquinolin-1-yl)-5-fluoro-N-methylindoline-2-carboxamide] | 9.6
5 | CN(C(=O)c1cc2ccccn2c1)C1CNCc2[nH]c(=O)c3cc(F)c(F)cc3c21 (single isomer, unassigned) [Compound 506, N-(8,9-Difluoro-6-oxo-1,2,3,4,5,6-hexahydrobenzo[c][1,7]naphthyridin-1-yl)-N-methylindolizine-2-carboxamide] | 22
6 | CN(C(=O)c1cc2ccccc2[nH]1)C1CN(CCO)Cc2[nH]c(=O)c3cc(F)c(F)cc3c21 (single isomer, unassigned) [Compound 89, N-(8,9-Difluoro-3-(2-hydroxyethyl)-6-oxo-1,2,3,4,5,6-hexahydrobenzo[c][1,7]naphthyridin-1-yl)-N-methyl-1H-indole-2-carboxamide] | 7.9
7 | CN(C(=O)c1cc2cc(F)c(F)cc2[nH]1)C1COCc2nc(NCCN)c3cc(F)c(F)cc3c21 (single isomer, unassigned) [Compound 351, N-(6-((2-Aminoethyl)amino)-8,9-difluoro-1,4-dihydro-2H-pyrano[3,4-c]isoquinolin-1-yl)-5,6-difluoro-N-methyl-1H-indole-2-carboxamide] | 0.03

Same assay, conditions: Hepatitis B virus, HepDE19, HepDE19 assay, inhibition of rcDNA formation, bDNA quantitation; read-out: DE-19bDNA EC50

Row | Structure (SMILES) | EC50 [µM]
8 | CN(C(=O)c1cc2nc(C(F)(F)F)ccc2[nH]1)[C@@H]1COCc2[nH]c(=O)c3cc(F)c(F)cc3c21 [Compound 219, (S)-N-(8,9-difluoro-6-oxo-1,4,5,6-tetrahydro-2H-pyrano[3,4-c]isoquinolin-1-yl)-N-methyl-5-(trifluoromethyl)-1H-pyrrolo[3,2-b]pyridine-2-carboxamide] | 1.44
9 | CN([C@@H]1COCc2[nH]c(=O)c3cc(F)c(F)cc3c21)S(=O)(=O)c1ccc(F)c(Cl)c1 [Compound 143, (S)-3-Chloro-N-(8,9-difluoro-6-oxo-1,4,5,6-tetrahydro-2H-pyrano[3,4-c]isoquinolin-1-yl)-4-fluoro-N-methylbenzenesulfonamide] | 18
10 | CN(C(=O)c1ccc2scnc2c1)[C@@H]1COCc2[nH]c(=O)c3cc(F)c(F)cc3c21 [Compound 427, (S)-N-(8,9-Difluoro-6-oxo-1,4,5,6-tetrahydro-2H-pyrano[3,4-c]isoquinolin-1-yl)-N-methylbenzo[d]thiazole-5-carboxamide] | 0.17
11 | CN(C(=O)c1cc2cc(Cl)cnc2[nH]1)[C@@H]1COCc2[nH]c(=O)c3cc(F)c(F)cc3c21 [Compound 191, (S)-5-Chloro-N-(8,9-difluoro-6-oxo-1,4,5,6-tetrahydro-2H-pyrano[3,4-c]isoquinolin-1-yl)-N-methyl-1H-pyrrolo[2,3-b]pyridine-2-carboxamide] | 0.12
12 | CN(C(=O)c1cnc(C(F)(F)F)c(Cl)c1)[C@@H]1COCc2[nH]c(=O)c3cc(F)c(F)cc3c21 [Compound 377, (S)-5-Chloro-N-(8,9-difluoro-6-oxo-1,4,5,6-tetrahydro-2H-pyrano[3,4-c]isoquinolin-1-yl)-N-methyl-6-(trifluoromethyl)nicotinamide] | 0.04
13 | CN(C(=O)c1cc2cc(C(F)F)ccn2c1)[C@@H]1COCc2[nH]c(=O)c3cc(F)c(F)cc3c21 [Compound 374, (S)-N-(8,9-Difluoro-6-oxo-1,4,5,6-tetrahydro-2H-pyrano[3,4-c]isoquinolin-1-yl)-7-(difluoromethyl)-N-methylindolizine-2-carboxamide] | 24
14 | CN(C(=O)c1cc2c(C(F)F)cc(F)cc2[nH]1)[C@@H]1CCCc2[nH]c(=O)c3cc(F)ccc3c21 [Compound 493, (R)-4-(difluoromethyl)-6-fluoro-N-(8-fluoro-6-oxo-1,2,3,4,5,6-hexahydrophenanthridin-1-y1)-N-methyl-1H-indole-2-carboxamide] | 0.01
15 | CCc1ccc2[nH]c(C(=O)N(C)[C@@H]3COCc4[nH]c(=O)c5cc(F)c(F)cc5c43)cc2c1 [Compound 328, (S)-N-(8,9-Difluoro-6-oxo-1,4,5,6-tetrahydro-2H-pyrano[3,4-c]isoquinolin-1-yl)-5-ethyl-N-methyl-1H-indole-2-carboxamide] | 3.1
16 | CN(C(=O)c1cc2cc(F)c(F)cc2[nH]1)[C@@H]1COCc2c1c1cc(F)c(F)cc1c(=O)n2CCO [Compound 315, (S)-N-(8,9-Difluoro-5-(2-hydroxyethyl)-6-oxo-1,4,5,6-tetrahydro-2H-pyrano[3,4-c]isoquinolin-1-yl)-5,6-difluoro-N-methyl-1H-indole-2-carboxamide] | 0.03
17 | CN(C(=O)c1cc2scc(Cl)c2[nH]1)[C@@H]1COCc2[nH]c(=O)c3cc(F)c(F)cc3c21 [Compound 350, (S)-3-chloro-N-(8,9-difluoro-6-oxo-1,4,5,6-tetrahydro-2H-pyrano[3,4-c]isoquinolin-1-yl)-N-methyl-4H-thieno[3,2-b]pyrrole-5-carboxamide] | 0.07
18 | CN(C(=O)c1cccc(Oc2ccccc2)c1)[C@@H]1COCc2[nH]c(=O)c3cc(F)c(F)cc3c21 [Compound 292, (S)-N-(8,9-Difluoro-6-oxo-1,4,5,6-tetrahydro-2H-pyrano[3,4-c]isoquinolin-1-yl)-N-methyl-3-phenoxybenzamide] | 11.2
19 | CN(C(=O)C1CN(c2csc(Cl)c2)C1)[C@@H]1COCc2[nH]c(=O)c3cc(F)c(F)cc3c21 [Compound 370, (S)-1-(5-Chlorothiophen-3-yl)-N-(8,9-difluoro-6-oxo-1,4,5,6-tetrahydro-2H-pyrano[3,4-c]isoquinolin-1-yl)-N-methylazetidine-3-carboxamide] | 0.49
20 | CN(C(=O)c1cccc(Oc2cccc(F)c2)c1)[C@@H]1COCc2[nH]c(=O)c3cc(F)c(F)cc3c21 [Compound 322, (S)-N-(8,9-Difluoro-6-oxo-1,4,5,6-tetrahydro-2H-pyrano[3,4-c]isoquinolin-1-yl)-3-(3-fluorophenoxy)-N-methylbenzamide] | 8.1
21 | CN(C(=O)c1cc(F)c(Br)c(F)c1)[C@@H]1COCc2[nH]c(=O)c3cc(F)c(F)cc3c21 [Compound 172, 4-Bromo-N-(8,9-difluoro-6-oxo-2,4,5,6-tetrahydro-1H-pyrano[3,4-c]isoquinolin-1-yl)-3,5-difluoro-N-methylbenzamide] | 0.01
